Values quoted from earlier work, collected in patent publication US5672605A, “Macrolide immunomodulators” (Abbott Laboratories, priority 1995, dated 1997).

Key:
Candida albicans = conditions: particularly against Candida albicans, both in vitro and in vivo
[1] = rapamycin alone or in combination with picibanil
[2] = test system: experimental allergic encephalomyelitis model, a model for multiple sclerosis; conditions: in vivo
[3] = test system: adjuvant arthritis model, a model for rheumatoid arthritis; conditions: in vivo

C=CC[C@@H]1/C=C(\C)C[C@H](C)C[C@H](OC)[C@H]2O[C@@](O)(C(=O)C(=O)N3CCCC[C@H]3C(=O)O[C@H](/C(C)=C/[C@@H]3CC[C@@H](O)[C@H](OC)C3)[C@H](C)[C@@H](O)CC1=O)[C@H](C)C[C@@H]2OC [FK-506]
binding to FKBP-12, in words (FKBP-12): binds to FKBP-12

CO[C@H]1C[C@@H]2CC[C@@H](C)[C@@](O)(O2)C(=O)C(=O)N2CCCC[C@H]2C(=O)O[C@H]([C@H](C)C[C@@H]2CC[C@@H](O)[C@H](OC)C2)CC(=O)[C@H](C)/C=C(\C)[C@@H](O)[C@@H](OC)C(=O)[C@H](C)C[C@H](C)/C=C/C=C/C=C/1C [rapamycin]
antifungal activity, in words (Candida albicans): antifungal activity
inhibition of the formation of IgE-like antibodies (IgE-like antibodies): effectively inhibit the formation of IgE-like antibodies
antitumor activity, in words [1]: antitumor activity
immunosuppressant effect in experimental allergic encephalomyelitis model [2]: effective as an immunosuppressant
immunosuppressant effect in adjuvant arthritis model [3]: effective as an immunosuppressant
binding to FKBP-12, in words (FKBP-12): binds to FKBP-12
